These results are taken from patent publication US20250108023A1, “Products for Masking Bitterness” (The Third People's Hospital of Henan Province, priority 2023, published 2025).

In assay [1] the target is T1, TRPM5 (Mus musculus, UniProt Q9JJH7).
T1 construct: host or cells: mouse taste cells
T1 sequence (Q9JJH7 1-1158): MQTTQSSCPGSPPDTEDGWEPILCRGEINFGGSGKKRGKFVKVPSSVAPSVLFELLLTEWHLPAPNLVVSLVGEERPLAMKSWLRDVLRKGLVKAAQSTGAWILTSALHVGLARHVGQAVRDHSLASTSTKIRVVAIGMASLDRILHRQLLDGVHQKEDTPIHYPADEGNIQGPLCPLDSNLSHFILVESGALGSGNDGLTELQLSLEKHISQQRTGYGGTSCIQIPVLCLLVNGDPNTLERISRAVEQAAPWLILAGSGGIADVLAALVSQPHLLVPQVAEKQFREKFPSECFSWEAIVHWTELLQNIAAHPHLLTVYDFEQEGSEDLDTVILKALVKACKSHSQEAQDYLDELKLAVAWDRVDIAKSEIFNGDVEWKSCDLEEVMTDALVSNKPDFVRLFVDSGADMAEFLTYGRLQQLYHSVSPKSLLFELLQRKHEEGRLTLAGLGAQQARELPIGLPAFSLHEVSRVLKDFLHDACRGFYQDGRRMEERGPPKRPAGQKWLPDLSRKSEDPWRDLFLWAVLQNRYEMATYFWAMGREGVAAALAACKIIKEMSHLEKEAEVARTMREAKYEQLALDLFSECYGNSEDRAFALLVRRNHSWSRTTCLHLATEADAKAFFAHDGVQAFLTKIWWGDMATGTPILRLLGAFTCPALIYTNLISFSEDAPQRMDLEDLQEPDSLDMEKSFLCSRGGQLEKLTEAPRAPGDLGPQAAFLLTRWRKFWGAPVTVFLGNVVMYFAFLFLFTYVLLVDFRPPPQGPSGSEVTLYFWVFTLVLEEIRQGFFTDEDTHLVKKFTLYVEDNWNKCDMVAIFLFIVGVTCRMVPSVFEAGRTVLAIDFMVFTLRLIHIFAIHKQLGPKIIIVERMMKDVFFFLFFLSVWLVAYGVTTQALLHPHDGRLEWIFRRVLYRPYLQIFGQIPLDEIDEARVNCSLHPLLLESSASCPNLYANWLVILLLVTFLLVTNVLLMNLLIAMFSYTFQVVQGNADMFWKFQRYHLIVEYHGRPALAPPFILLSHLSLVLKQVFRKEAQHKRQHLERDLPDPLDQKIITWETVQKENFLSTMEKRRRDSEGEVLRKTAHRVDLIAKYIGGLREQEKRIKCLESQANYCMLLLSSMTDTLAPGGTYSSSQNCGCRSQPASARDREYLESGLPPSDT
As to conditions: TPPO 5 μM; cited from earlier work.

Assay [2] addresses T2, sodium ion channel of Trpm5 bitter receptor (Mus musculus, UniProt Q9JJH7).
T2 construct: Put the removed tongue in a 2 ml EP tube, add 1-1.5 ml of 0.25% trypsin solution; from tissue; host or cells: cells dissociated with trypsin from mouse tongue
T2 sequence (Q9JJH7 1-1158): T1 sequence (Q9JJH7 1-1158)
Description: Immunofluorescence experiment of sodium ion channels in mouse tongue cells stimulated with bitter agent. It is filed as cell-based, mice. The procedure:
The mouse was killed by dislocation, and the tongue was removed (minimizing tongue bleeding), disinfected with alcohol for 2 minutes (adding sodium citrate for anticoagulation), and washed with D-Hanks solution or rinsed with 10 ml of saline solution drawn by a syringe.
Take out the centrifuge tube from the constant temperature incubator, shake for 2 minutes, blow the undigested tongue several times with the gun tip, take out the tongue, cover it with the EP tube cap, put it in a centrifuge, centrifuge at 3000 rpm for 3 minutes, discard the supernatant, add cell culture medium (containing 10% inactivated serum), blow and disperse the cells, and place it in a 37° C. constant temperature incubator for 30 min to allow the cells to recover.
(1) Take out the prepared ENG-2 AM storage solution and warm it to room temperature for use, keeping it away from light. The concentration of the pre-prepared stock solution is 2 mM and it is stored at −18° C. for future use.
(2) Dilute the ENG-2 AM+DMSO stock solution to a […] working solution using serum-free culture medium.
(3) Load the probe in a serum-free culture medium containing an appropriate concentration of AM probe.
Take out the cells from the incubator, centrifuge, and discard the culture medium. Wash the cells once with D-Hanks solution, centrifuge, and discard the culture medium. Add 1 ml of culture medium again, then add 300 ul of sodium ion probe dilution solution, blow and disperse the cells, and incubate the cells at room temperature or 37° C. for 1 hour.
At the end of incubation, centrifuge at 100 rpm for 2 minutes, discard the supernatant, add 500 ul of cell culture medium without AM probe, blow and disperse the cells, and incubate for 20-60 min to ensure that the cells completely deesterify the AM group.
(4) Take 10 ul of incubation solution and drop it into the center of the cell counting plate, cover it with a slide, and observe it under a fluorescence microscope.
(5) Use a low-power microscope to find the cells, open the fluorescence path, detect the fluorescence signal with a fluorescence microscope, change to a high-power microscope, find the appropriate observation cells, observe and take pictures to record the initial signal.
(2) Experimental drugs: Add 5 ul of the tested drug to one side of the cover glass on the cell counting plate, use absorbent paper to absorb water on the opposite side, let the solution soak the cells, and then use a fluorescence microscope to observe and take 3-5 photos, one every 1-2 minutes; then add 5 ul of the standard bitter drug to one side of the cover glass on the cell counting plate, use absorbent paper to absorb water on the opposite side, let the solution soak the cells, and then use a fluorescence microscope to observe and take 3-5 photos, one every 1-2 minutes.
(5) Data analysis: Use Image J-Fiji software to analyze the images, compare the average values of the fluorescence pixels, remove the base number and compare them in the table, draw FIGS. 4-6, and use SPSS18.0 to perform chi-square tests to compare the differences between the data groups.

Setting [3] is: Bitterant 60 s (2% metronidazole solution).
Setting [4] is: Bitterant 120 s (2% metronidazole solution).
The mark [5] stands for this setting: Bitterant 180 s (2% metronidazole solution).

Regarding `O=P(c1ccccc1)(c1ccccc1)c1ccccc1` [Triphenylphosphine oxide, reference compound], the “remaining taste-evoked Na^+ responses” value in assay [1] was “abolished”. The “average value of fluorescence brightness” value came out at 88.789 in assay [2] (Addition of drugs); 88.608 in assay [2] (setting [3]); 88.598 in assay [2] (setting [4]); 88.583 in assay [2] (setting [5]); 88.898 in assay [2] (Initial (before addition of drug), sodium ion dye ENG-2 AM). In addition, the “average value of fluorescence brightness, base number removed” value is recorded as −0.243 in assay [2] (Addition of drugs); −0.308 in assay [2] (setting [3]); −1.322 in assay [2] (setting [4]); −1.384 in assay [2] (setting [5]); 0 in assay [2] (Initial). Besides, the “blocking effect on the sodium ion channel (result analysis in words)” value in assay [2] (judged from change of sodium ion fluorescence after bitter drug) was “sodium ion channel is blocked”.
